This is an account of results in ChEMBL document CHEMBL1201862, “PubChem BioAssay data set” (2004).

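Assay format: 96-well plates, 48-hour exposure. Here, GI50 denotes the concentration required for 50% inhibition of growth.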 Calls of active or inactive are those of the source. No stated cut-off is given here; in the data, active = GI50 up to about 1.1 µM and inactive = higher.

Some test systems named below: A549; CCRF-CEM; COLO 205; HCT-15; HL-60; K562; KM12; LOX IMVI; NCI-H23; NCI-H460; OVCAR-4; OVCAR-8; SF-539; SK-MEL-28; SK-MEL-5; SN12C; SNB-19; SNB-75; SW-620; UO-31.
Holding throughout (test): inhibition of tumour cell growth, NCI panel, 48 h

Regarding `c1ccc(NN/N=N/c2ccc(-c3nc4ccccc4[nH]3)cc2)cc1`, the GI50 is 37 µM (inactive) in the assay with A549; 20.7 µM (inactive) with CCRF-CEM; 23.1 µM (inactive) with COLO 205; 13 µM in the assay on HCT-15; 22 µM (inactive) in the assay on HL-60; 8.43 µM (inactive) in the assay with K562. Further, the GI50 was 19.5 µM (inactive) in the assay on KM12; 15.2 µM (inactive) with LOX IMVI; 32.5 µM (inactive) in the assay with NCI-H23; 27 µM (inactive) with NCI-H460; 23.4 µM (inactive) in the assay with OVCAR-4; 36 µM (inactive) with OVCAR-8. Besides, the GI50 in the assay on SF-539 is 77.6 µM (inactive); with SK-MEL-28, 35.8 µM (inactive); in the assay on SK-MEL-5, 29 µM (inactive); in the assay with SN12C it was 32.2 µM (inactive); with SNB-19, > 100 µM (inactive); in the assay on SNB-75 it was 23.8 µM (inactive). Besides, the GI50 is 52.4 µM (inactive) in the assay on SW-620 and 34.5 µM (inactive) with UO-31.
For the compound `C[C@]12CC[C@H]3[C@@H](CCC4=CC(=O)CC[C@@]43C)[C@@H]1CC[C@@H]2C(=O)COS(=O)(=O)c1ccc(Br)cc1`, the GI50 is 18.7 µM (inactive) in the assay with A549; 0.207 µM (active) in the assay with CCRF-CEM; 20.5 µM (inactive) in the assay on COLO 205; 14.2 µM with HCT-15; 4.69 µM (inactive) in the assay with HL-60; 4.09 µM (inactive) with K562. Moreover, the GI50 in the assay on KM12 was 15.1 µM (inactive); in the assay with LOX IMVI it was 1.61 µM (inactive); in the assay on NCI-H23 it was 2.37 µM (inactive); with NCI-H460, 10.1 µM (inactive); with OVCAR-4, 4.5 µM (inactive); with OVCAR-8, 3.61 µM (inactive). For the same compound, the GI50 was 9.25 µM (inactive) in the assay on SF-539; 21 µM (inactive) with SK-MEL-28; 8.77 µM (inactive) with SK-MEL-5; 5.97 µM (inactive) in the assay with SN12C; 19.5 µM (inactive) in the assay with SNB-19; 17.5 µM (inactive) in the assay on SNB-75. The GI50 is 9.4 µM (inactive) with SW-620 and 1.7 µM (inactive) in the assay on UO-31.
For `Cc1nc2ccccc2n1C(=O)c1c(F)c(F)c(F)c(F)c1F`, the GI50 is 30.4 µM (inactive) in the assay with A549; 5.12 µM (inactive) in the assay with CCRF-CEM; 14.8 µM (inactive) in the assay with COLO 205; 11.2 µM with HCT-15; 4.49 µM (inactive) in the assay on HL-60; 5.48 µM (inactive) in the assay with K562. The GI50 in the assay on KM12 is 3.13 µM (inactive); with LOX IMVI, 8.93 µM (inactive); in the assay with NCI-H23 it was 17 µM (inactive); in the assay on NCI-H460, 5.09 µM (inactive); in the assay on OVCAR-4, 14.5 µM (inactive); with OVCAR-8, 17.7 µM (inactive). For the same compound, the GI50 in the assay with SF-539 is 11.6 µM (inactive); in the assay with SK-MEL-28 it was 29.4 µM (inactive); in the assay on SK-MEL-5, 12.1 µM (inactive); in the assay with SN12C it was 6.01 µM (inactive); with SNB-19, 29.5 µM (inactive); in the assay on SNB-75, 25.4 µM (inactive). Also, the GI50 was 5.09 µM (inactive) in the assay on SW-620 and 17 µM (inactive) in the assay with UO-31.
On to `Cc1cc(C)n(C(=C(C(Cl)=C(Cl)Cl)[N+](=O)[O-])n2nc(C)cc2C)n1`, for which the GI50 in the assay with A549 is 3.5 µM (inactive); with CCRF-CEM, 2.16 µM (inactive); in the assay with COLO 205, 2.08 µM (inactive); with HCT-15, 3.2 µM; in the assay with HL-60, 1.91 µM (inactive); in the assay on K562 it was 2.02 µM (inactive). Moreover, the GI50 in the assay with KM12 is 3.48 µM (inactive); in the assay on LOX IMVI it was 2.1 µM (inactive); in the assay with NCI-H23 it was 3.23 µM (inactive); in the assay with NCI-H460, 3.52 µM (inactive); in the assay with OVCAR-4, 3.59 µM (inactive); in the assay on OVCAR-8 it was 3.06 µM (inactive). Also, the GI50 with SF-539 was 4.59 µM (inactive); with SK-MEL-28, 6.17 µM (inactive); with SK-MEL-5 it was 2.13 µM (inactive); with SN12C, 3.98 µM (inactive); with SNB-19, 4.81 µM (inactive); with SNB-75 it was 6.25 µM (inactive). In addition, the GI50 in the assay on SW-620 is 3.7 µM (inactive); in the assay with UO-31, 3.18 µM (inactive).
For `O=C(NN1C(=O)CS(=O)(=O)C1c1ccc(Cl)c(Cl)c1)c1ccncc1` (stereo not drawn), the GI50 in the assay with A549 is > 92.3 µM (inactive); in the assay on CCRF-CEM, 42.1 µM (inactive); in the assay with COLO 205, > 100 µM (inactive); in the assay with HCT-15 it was more than 100 µM; in the assay with HL-60, > 43 µM (inactive); in the assay with K562 it was > 54.2 µM (inactive). In addition, the GI50 in the assay with KM12 was > 100 µM (inactive); with LOX IMVI it was > 95.9 µM (inactive); in the assay on NCI-H23 it was > 100 µM (inactive); with NCI-H460, > 100 µM (inactive); in the assay with OVCAR-4 it was > 100 µM (inactive); in the assay with OVCAR-8, > 100 µM (inactive). The GI50 in the assay with SF-539 was > 100 µM (inactive); with SK-MEL-28, > 100 µM (inactive); in the assay with SK-MEL-5, > 94.2 µM (inactive); in the assay on SN12C it was > 100 µM (inactive); with SNB-19, > 92.3 µM (inactive); in the assay on SNB-75, 54.2 µM (inactive). Also, the GI50 with SW-620 and in the assay on UO-31 was > 100 µM (inactive) in each case.
As to `Cc1ccc(Nc2nc3ccccc3nc2NS(=O)(=O)c2ccc(N)cc2)cc1`, the GI50 with A549 is 34.5 µM (inactive); in the assay with CCRF-CEM, 18.4 µM (inactive); in the assay with COLO 205, 45.8 µM (inactive); with HCT-15, 49.8 µM; in the assay with HL-60, 21.9 µM (inactive); in the assay with K562, 31.5 µM (inactive). In addition, the GI50 with KM12 is 23.5 µM (inactive); with LOX IMVI, 70.3 µM (inactive); in the assay with NCI-H23 it was 3.2 µM (inactive); in the assay with NCI-H460 it was 4.89 µM (inactive); with OVCAR-4, 19.3 µM (inactive); with OVCAR-8, 81.8 µM (inactive). Moreover, the GI50 in the assay on SF-539 is 39.4 µM (inactive); with SK-MEL-28, 33.4 µM (inactive); in the assay on SK-MEL-5, 39.2 µM (inactive); in the assay with SN12C, 48.3 µM (inactive); in the assay on SNB-19 it was 31.1 µM (inactive); with SNB-75 it was 84.9 µM (inactive). For the same compound, the GI50 with SW-620 is 20.4 µM (inactive); in the assay on UO-31, 21.5 µM (inactive).
On to `CC1(C)CC(=O)C2=C(C1)OC1=C(CC(C)(C)CC1=O)C2c1ccccc1[N+](=O)[O-]` (stereo not drawn), for which the GI50 was > 100 µM (inactive) in the assay on A549; > 100 µM (inactive) with CCRF-CEM; > 100 µM (inactive) in the assay on COLO 205; more than 100 µM with HCT-15; > 100 µM (inactive) in the assay on HL-60; > 100 µM (inactive) with K562. Further, the GI50 in the assay with KM12, with LOX IMVI, in the assay with NCI-H23, in the assay with NCI-H460, in the assay with OVCAR-4 and in the assay on SF-539 was > 100 µM (inactive) throughout. Further, the GI50 in the assay on SK-MEL-28, in the assay on SK-MEL-5, with SN12C, in the assay on SNB-19, with SNB-75 and in the assay on SW-620 was > 100 µM (inactive) in each case. In addition, the GI50 with UO-31 was 2 µM (inactive).
On to `O=c1[nH]c(=O)n(C2CC(O)C(CO)O2)cc1C(OCC(F)(F)F)OCC(F)(F)F` (stereo not drawn), for which the GI50 with A549 is > 100 µM (inactive); with CCRF-CEM it was 70.8 µM (inactive); in the assay with COLO 205 it was > 100 µM (inactive); with HL-60, > 100 µM (inactive); with K562, 53.3 µM (inactive); in the assay on KM12, > 100 µM (inactive). Also, the GI50 in the assay on LOX IMVI, in the assay with NCI-H23, in the assay with NCI-H460, in the assay with OVCAR-4, in the assay with OVCAR-8 and with SF-539 was > 100 µM (inactive) in each case. Moreover, the GI50 in the assay on SK-MEL-28, in the assay on SK-MEL-5, in the assay on SN12C, in the assay on SNB-19, in the assay on SNB-75 and in the assay with SW-620 was > 100 µM (inactive) each time. In addition, the GI50 in the assay on UO-31 is > 100 µM (inactive).
On to `c1ccc(C(NC2=NCCO2)c2ccccc2)cc1`, for which the GI50 is > 10 µM (inactive) in the assay with A549; > 10 µM (inactive) in the assay with CCRF-CEM; > 10 µM (inactive) in the assay with COLO 205; more than 10 µM in the assay on HCT-15; > 10 µM (inactive) in the assay with HL-60; > 10 µM (inactive) in the assay on K562. For the same compound, the GI50 in the assay on KM12, in the assay on LOX IMVI, with NCI-H23, in the assay with NCI-H460, in the assay on OVCAR-4 and with OVCAR-8 was > 10 µM (inactive) throughout. The GI50 in the assay with SF-539, in the assay with SK-MEL-28, in the assay on SK-MEL-5, in the assay on SN12C, with SNB-19 and in the assay on SNB-75 was > 10 µM (inactive) each time. Moreover, the GI50 with SW-620 and in the assay with UO-31 was > 10 µM (inactive) each time.
On to `Cc1cnc(/N=c2\sc(C)cn2-c2ncc(C)s2)s1`, for which the GI50 is > 100 µM (inactive) with A549; > 100 µM (inactive) in the assay on CCRF-CEM; > 100 µM (inactive) with COLO 205; more than 100 µM in the assay on HCT-15; > 100 µM (inactive) with HL-60; > 100 µM (inactive) with K562. The GI50 with KM12, with LOX IMVI, in the assay on NCI-H23, with NCI-H460, in the assay on OVCAR-4 and with OVCAR-8 was > 100 µM (inactive) throughout. Moreover, the GI50 is > 100 µM (inactive) in the assay with SF-539; > 100 µM (inactive) in the assay on SK-MEL-28; > 100 µM (inactive) with SK-MEL-5; > 100 µM (inactive) in the assay with SN12C; > 100 µM (inactive) in the assay on SNB-19; 71.3 µM (inactive) in the assay with SNB-75. The GI50 with SW-620 and in the assay with UO-31 was > 100 µM (inactive) each time.
